The numbers were not newly measured in patent publication US9789076B2, “Bolus dose of hydroxycitric acid with glycerol” (GLYKON TECHNOLOGIES GROUP, LLC, priority 2014, dated 2017), which cites them from elsewhere.

The conditions of data set [1]: rats, oral, 30 days.
The mark [2] stands for this setting: 0.33 mmoles/kg twice daily (total 0.66 mmoles/kg).

Where two headings read alike, the source gives them in different places.

In the case of `O=C([O-])CC(O)(C(=O)[O-])C(O)C(=O)[O-].[Na+].[Na+].[Na+]` (stereo not drawn) [trisodium hydroxycitrate], in data set [1] (setting [2]), the “food consumption, percent of controls” value is listed as 87% and the “weight gain, percent of controls” value is reported as 62%. In addition, in data set [1] (2.63 mmoles/kg as bolus), the “food consumption, percent of controls” value is given as 83% and the “weight gain, percent of controls” value was 64%. Moreover, the lowest effect dosage in data set [1] (given twice daily) is 0.33 mmoles/kg body weight.
Consider `O=C(O)CC(O)(C(=O)O)C(O)C(=O)O` (single isomer, unassigned; (-)) [hydroxycitrate, (−)-Hydroxycitric acid], for which the “inhibition of acetate or ethanol incorporation into fatty acid synthesis” value in the data set with fatty acid synthesis is reported as “no hydroxycitrate inhibition”.
